Common to all, as to test: minimal inhibitory concentration (MIC), agar streak test
Common to all, as to format: cell-based

Assay [1] relates to S. marcescens 35. Conditions: Serratia marcescens, heart infusion agar, 37° C., 20 hours, 10^8 viable cells per ml. The method, then: (§1) One loopful of an overnight culture of each test strain in Trypticase-soy broth (10^8 viable cells per ml.) was streaked on heart infusion agar (HI-agar) containing graded concentrations of antibiotics, and the minimal inhibitory concentration (MIC) was expressed in terms of μg/ml after incubation at 37° C. for 20 hours.

Assay [2] has as its system B. subtilis ATCC 6633. The settings on record: Bacillus subtilis, ATCC6633, heart infusion agar, 37° C., 20 hours, 10^8 viable cells per ml. The procedure:
as §1

Assay [3] deals with Ps. aeruginosa 2. The settings on record: Pseudomonas aeruginosa, heart infusion agar, 37° C., 20 hours, 10^8 viable cells per ml. The method, then: as §1

The structures appear in SMILES notation. In brackets after ≈: the same amount, converted by molar mass.

For `CCO/N=C(\C(=O)NC1C(=O)N2C(C(=O)[O-])=C(C[n+]3cccc(CO)c3)CSC12)c1nsc(N)n1` (stereo not drawn) [(1)], the MIC (usually the least concentration at which growth counts as inhibited) was 3.13 µg/mL (≈ 6.02 µM) in assay [1], 0.78 µg/mL (≈ 1.5 µM) in assay [2] and 6.25 µg/mL (≈ 12 µM) in assay [3].

For the compound `CCO/N=C(\C(=O)NC1C(=O)N2C(C(=O)[O-])=C(C[n+]3ccc(CO)cc3)CSC12)c1nsc(N)n1` (stereo not drawn) [(2)], the MIC amounted to 1.56 µg/mL (≈ 3 µM) in assay [1], 0.78 µg/mL (≈ 1.5 µM) in assay [2] and 12.5 µg/mL (≈ 24.1 µM) in assay [3].

For the compound `CCO/N=C(\C(=O)NC1C(=O)N2C(C(=O)[O-])=C(C[n+]3cccc(Cl)c3)CSC12)c1nsc(N)n1` (stereo not drawn) [(3)], the results for the MIC in assay [1], in assay [2] and in assay [3] were 3.13 µg/mL (≈ 5.97 µM), 0.78 µg/mL (≈ 1.49 µM) and 6.25 µg/mL (≈ 11.9 µM), respectively.

Consider `CCO/N=C(\C(=O)NC1C(=O)N2C(C(=O)[O-])=C(C[n+]3cc(C)cc(C)c3)CSC12)c1nsc(N)n1` (stereo not drawn) [(4)], for which the MIC came to 3.13 µg/mL (≈ 6.05 µM) in assay [1], 1.56 µg/mL (≈ 3.01 µM) in assay [2] and 6.25 µg/mL (≈ 12.1 µM) in assay [3].

As to `CCO/N=C(\C(=O)NC1C(=O)N2C(C(=O)[O-])=C(C[n+]3ccc(CCCO)cc3)CSC12)c1nsc(N)n1` (stereo not drawn) [(5)], the figures for the minimal inhibitory concentration (MIC) in assay [1], in assay [2] and in assay [3] were 1.56 µg/mL (≈ 2.85 µM), 0.78 µg/mL (≈ 1.42 µM) and 12.5 µg/mL (≈ 22.8 µM), respectively.
